Tests used:
[1] = tested on: Beet Armyworm (BAW) (Spodoptera exigua); assay: Bioassay on beet armyworm (BAW), 128-well diet tray assay; type: in vivo; conditions: Spodoptera exigua; Beet armyworm, 50 μg/cm^2; read-out: % Mortality BAW 50 μg/cm^2
Summary of the method: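 Second-instar Spodoptera exigua larvae, one to five per well, on artificial diet treated with 50 μg/cm^2 compound in 90:10 acetone-water and dried, eight wells per compound. Held at 25 °C, 14:10 light-dark for five to seven days; percent mortality averaged over wells.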

[2] = tested on: Corn Earworm (CEW) (Helicoverpa zea); assay: Bioassay on corn earworm (CEW), 128-well diet tray assay; type: in vivo; conditions: Helicoverpa zea; Corn earworm, 50 μg/cm^2; read-out: % Mortality CEW 50 μg/cm^2
Summary of the method: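 Second-instar Helicoverpa zea larvae (one to five per well) placed on artificial diet treated with 50 μg/cm^2 compound in 90:10 acetone-water, dried, eight wells per compound. Held at 25 °C, 14:10 light-dark, five to seven days; percent mortality averaged over wells.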

## Cc1cccc(C)c1-n1c(C)cs/c1=N\N=C\c1ccc(-c2ncn(-c3ccc(OC(F)(F)F)cc3)n2)cc1 [Compound 175C]
[1]
  pest or weed control at 50 µg/cm2, 50 µg/cm2: 50 to 100%
[2]
  pest or weed control at 50 µg/cm2, 50 µg/cm2: 50 to 100%

## Cc1ccccc1N1CCS/C1=N\N=C\c1ccc(-c2ncn(-c3ccc(OC(F)(F)F)cc3)n2)cc1 [Compound 141C]
[1]
  pest or weed control at 50 µg/cm2, 50 µg/cm2: 50 to 100%
[2]
  pest or weed control at 50 µg/cm2, 50 µg/cm2: 50 to 100%

## CCN(CC)c1ccc(-c2cs/c(=N\N=C\c3ccc(-c4ncn(-c5ccc(OC(F)(F)F)cc5)n4)cc3)n2-c2c(C)cccc2C)cc1 [Compound 74C]
[1]
  pest or weed control at 50 µg/cm2, 50 µg/cm2: 50 to 100%
[2]
  pest or weed control at 50 µg/cm2, 50 µg/cm2: 50 to 100%

## CC(C)c1ccccc1N1C(=O)CS/C1=N\N=C\c1ccc(-c2ncn(-c3ccc(C(F)(F)F)cc3)n2)cc1 [Compound 120C]
[1]
  pest or weed control at 50 µg/cm2, 50 µg/cm2: 50 to 100%
[2]
  pest or weed control at 50 µg/cm2, 50 µg/cm2: 50 to 100%

## COc1ccc(N2/C(=N/N=C/c3ccc(-c4ncn(-c5ccc(OC(F)(F)F)cc5)n4)cc3)SCCC2C)c(C)c1 (stereo not shown) [Compound 219C]
[1]
  pest or weed control at 50 µg/cm2, 50 µg/cm2: 50 to 100%
[2]
  pest or weed control at 50 µg/cm2, 50 µg/cm2: 50 to 100%

## CCc1cccnc1N1C(=O)CS/C1=N\N=C\c1ccc(-c2ncn(-c3ccc(OC(F)(F)F)cc3)n2)cc1 [Compound 123C]
[1]
  pest or weed control at 50 µg/cm2, 50 µg/cm2: 50 to 100%
[2]
  pest or weed control at 50 µg/cm2, 50 µg/cm2: 50 to 100%

## CC(C)c1ccccc1N1CCCCS/C1=N\N=C\c1ccc(-c2ncn(-c3ccc(OC(F)(F)F)cc3)n2)cc1 [Compound 212C]
[1]
  pest or weed control at 50 µg/cm2, 50 µg/cm2: 50 to 100%
[2]
  pest or weed control at 50 µg/cm2, 50 µg/cm2: 50 to 100%

## CC(C)c1cc(F)ccc1N1CS/C1=N\N=C\c1ccc(-c2ncn(-c3ccc(C(F)(F)F)cc3)n2)cc1 [Compound 261C]
[1]
  pest or weed control at 50 µg/cm2, 50 µg/cm2: 50 to 100%
[2]
  pest or weed control at 50 µg/cm2, 50 µg/cm2: 50 to 100%

## CCCc1ccccc1N1C(=O)C(C)S/C1=N\N=C\c1ccc(-c2ncn(-c3ccc(OC(F)(F)F)cc3)n2)cc1 (stereo not shown) [Compound 128C]
[1]
  pest or weed control at 50 µg/cm2, 50 µg/cm2: 50 to 100%
[2]
  pest or weed control at 50 µg/cm2, 50 µg/cm2: 50 to 100%

## COCOCC(C)C(=O)OCS/C(=N\c1c(C)cccc1C)N/N=C/c1ccc(-c2ncn(-c3ccc(OC(F)(F)F)cc3)n2)cc1 (stereo not shown) [Compound 41C]
[1]
  pest or weed control at 50 µg/cm2, 50 µg/cm2: 50 to 100%
[2]
  pest or weed control at 50 µg/cm2, 50 µg/cm2: 50 to 100%

## CC(C)c1ccccc1N1CCCS/C1=N\N=C\c1ccc(-c2ncn(-c3ccc(OC(F)(F)F)cc3)n2)cc1 [Compound 177C]
[1]
  pest or weed control at 50 µg/cm2, 50 µg/cm2: 50 to 100%
[2]
  pest or weed control at 50 µg/cm2, 50 µg/cm2: 50 to 100%

## FC(F)(F)Oc1ccc(-n2cnc(-c3ccc(/C=N/N=C4\SCN4c4c(Cl)cccc4Cl)cc3)n2)cc1 [Compound 244C]
[1]
  pest or weed control at 50 µg/cm2, 50 µg/cm2: 50 to 100%
[2]
  pest or weed control at 50 µg/cm2, 50 µg/cm2: 50 to 100%

## Cc1ccccc1N1C(=O)CS/C1=N\N=C\c1ccc(-c2ncn(-c3ccc(OC(F)(F)F)cc3)n2)cc1 [Compound 113C]
[1]
  pest or weed control at 50 µg/cm2, 50 µg/cm2: 50 to 100%
[2]
  pest or weed control at 50 µg/cm2, 50 µg/cm2: 50 to 100%

## Cc1cccc(C)c1/N=C(/N/N=C/c1ccc(-c2ncn(-c3ccc(OC(F)(F)F)cc3)n2)cc1)SCc1ccccc1F [Compound 11C]
[1]
  pest or weed control at 50 µg/cm2, 50 µg/cm2: 50 to 100%
[2]
  pest or weed control at 50 µg/cm2, 50 µg/cm2: 50 to 100%

## FC(F)(F)Oc1ccc(-n2cnc(-c3ccc(/C=N/N=C4\SCCCN4c4c(Cl)cccc4Cl)cc3)n2)cc1 [Compound 187C]
[1]
  pest or weed control at 50 µg/cm2, 50 µg/cm2: 50 to 100%
[2]
  pest or weed control at 50 µg/cm2, 50 µg/cm2: 50 to 100%

## CCc1ccccc1N1CCCS/C1=N\N=C\c1ccc(-c2ncn(-c3ccc(OC(F)(F)F)cc3)n2)cc1 [Compound 185C]
[1]
  pest or weed control at 50 µg/cm2, 50 µg/cm2: 50 to 100%
[2]
  pest or weed control at 50 µg/cm2, 50 µg/cm2: 50 to 100%

## Cc1cc(C)c(N2CCCS/C2=N\N=C\c2ccc(-c3ncn(-c4ccc(OC(F)(F)F)cc4)n3)cc2)c(C)c1 [Compound 184C]
[1]
  pest or weed control at 50 µg/cm2, 50 µg/cm2: 50 to 100%
[2]
  pest or weed control at 50 µg/cm2, 50 µg/cm2: 50 to 100%

## COCOCC(C)C(=O)OCS/C(=N\c1c(C)cc(OC)cc1C)N/N=C/c1ccc(-c2ncn(-c3ccc(OC(F)(F)F)cc3)n2)cc1 (stereo not shown) [Compound 42C]
[1]
  pest or weed control at 50 µg/cm2, 50 µg/cm2: 50 to 100%
[2]
  pest or weed control at 50 µg/cm2, 50 µg/cm2: 50 to 100%

## CCc1ccccc1N1CS/C1=N\N=C\c1ccc(-c2ncn(-c3ccc(OC(F)(F)F)cc3)n2)cc1 [Compound 254C]
[1]
  pest or weed control at 50 µg/cm2, 50 µg/cm2: 50 to 100%
[2]
  pest or weed control at 50 µg/cm2, 50 µg/cm2: 50 to 100%

## CCC(C)c1ccccc1N1C(=O)CS/C1=N\N=C\c1ccc(-c2ncn(-c3ccc(OC(F)(F)F)cc3)n2)cc1 (stereo not shown) [Compound 108C]
[1]
  pest or weed control at 50 µg/cm2, 50 µg/cm2: 50 to 100%
[2]
  pest or weed control at 50 µg/cm2, 50 µg/cm2: 50 to 100%

Reference: US9018388B2, “Pesticidal compositions and processes related thereto” (Dow AgroSciences LLC, priority 2012, dated 2015)
